In patent US20150218172A1, “Pyrrolo[2,3-D]Pyrimidine Tropomyosin-Related Kinase Inhibitors” (PFIZER LIMITED, priority 2012, published 2015):

Biological target: T1, TrkA (Homo sapiens, UniProt P04629)
T1 construct: aa 441-796; His; purchased Invitrogen PV3144
Assay: Isolated TRK enzyme assay (HTRF KinEASE-TK kit), PV3144 TrkA enzyme assay
Assay type: biochemical
Conditions: PV3144 TrkA enzyme assay, recombinant His-tagged cytoplasmic domain aa 441-796, 4 nM enzyme, 40 uM ATP; arithmetic mean where more than one reading; read-out: Trka enzyme (IC50)
How it was run: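 Recombinant His-tagged cytoplasmic domain of human TrkA, preactivated with ATP for 20 min, then 20 min with compound before biotinylated TK substrate (1 uM final) at room temperature. HTRF read at 665/620 nm; % inhibition normalised to reference-compound and DMSO controls, IC50 from sigmoid fit, mean of replicates.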

T1 sequence (P04629 441-796): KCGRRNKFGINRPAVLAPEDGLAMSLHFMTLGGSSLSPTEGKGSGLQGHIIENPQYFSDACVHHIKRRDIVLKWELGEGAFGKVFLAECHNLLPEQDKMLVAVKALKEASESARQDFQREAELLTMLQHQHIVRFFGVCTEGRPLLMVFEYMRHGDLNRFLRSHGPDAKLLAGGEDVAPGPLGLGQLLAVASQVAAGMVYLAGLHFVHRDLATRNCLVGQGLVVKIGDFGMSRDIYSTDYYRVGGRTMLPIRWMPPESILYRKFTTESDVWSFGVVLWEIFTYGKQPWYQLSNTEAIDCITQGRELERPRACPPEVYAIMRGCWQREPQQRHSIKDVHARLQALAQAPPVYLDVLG

## O=C(Cc1ccc(Cl)cc1)Nc1cc(C(=O)c2cn(CCO)c3ncncc23)ccn1 [Example 136, 2-(4-chlorophenyl)-N-(4-{[7-(2-hydroxyethyl)-7H-pyrrolo[2,3-d]pyrimidin-5-yl]carbonyl}pyridin-2-yl)acetamide]
  IC50: 0.0258 µM

## CC(C)(CO)n1cc(C(=O)c2ccc(C#N)c(NC(=O)Cn3ccc(C(F)(F)F)n3)c2)c2cnc(N)nc21 [Example 11, N-(5-{[2-amino-7-(1-hydroxy-2-methylpropan-2-yl)-7H-pyrrolo[2,3-d]pyrimidin-5-yl]carbonyl}-2-cyanophenyl)-2-[3-(trifluoromethyl)-1H-pyrazol-1-yl]acetamide]
  IC50: 0.0115 µM

## Cc1ccn(CC(=O)Nc2cc(C(=O)c3cn(CCO)c4ncncc34)ccn2)n1 [Example 128, N-(4-{[7-(2-hydroxyethyl)-7H-pyrrolo[2,3-d]pyrimidin-5-yl]carbonyl}pyridin-2-yl)-2-(3-methyl-1H-pyrazol-1-yl)acetamide]
  IC50: 1.23 µM

## C[C@@H](CO)n1cc(C(=O)c2cc(NC(=O)Cc3ccc(Cl)cc3)ccn2)c2cncnc21 [Example 16, 2-(4-chlorophenyl)-N-[2-({7-[(2S)-1-hydroxypropan-2-yl]-7H-pyrrolo[2,3-d]pyrimidin-5-yl}carbonyl)pyridin-4-yl]acetamide]
  IC50: 0.147 µM

## O=C(Cc1ccc(C(F)(F)F)cc1)Nc1ccnc(C(=O)c2cn(C(CO)CO)c3ncncc23)c1 [Example 93, N-(2-{[7-(1,3-dihydroxypropan-2-yl)-7H-pyrrolo[2,3-d]pyrimidin-5-yl]carbonyl}pyridin-4-yl)-2-[4-(trifluoromethyl)phenyl]acetamide]
  IC50: 0.164 µM

## C[C@H](CO)n1cc(C(=O)c2cc(NC(=O)Cc3cccc(C(F)(F)F)c3)ccn2)c2cncnc21 [Example 19, N-[2-({7-[(2R)-1-hydroxypropan-2-yl]-7H-pyrrolo[2,3-d]pyrimidin-5-yl}carbonyl)pyridin-4-yl]-2-[3-(trifluoromethyl)phenyl]acetamide]
  IC50: 0.0976 µM

## CC(CO)n1cc(C(=O)c2ccnc(NC(=O)Cc3ccc(C#N)cc3)c2)c2cncnc21 (racemic) [Example 32, 2-(4-cyanophenyl)-N-(4-{[7-(1-hydroxypropan-2-yl)-7H-pyrrolo[2,3-d]pyrimidin-5-yl]carbonyl}pyridin-2-yl)acetamide]
  IC50: 0.101 µM

## CC(C)n1cc(C(=O)c2cc(NC(=O)Cc3ccc(F)cn3)ccn2)c2cnc(N)nc21 [Example 89, N-(2-{[2-amino-7-(propan-2-yl)-7H-pyrrolo[2,3-d]pyrimidin-5-yl]carbonyl}pyridin-4-yl)-2-(5-fluoropyridin-2-yl)acetamide]
  IC50: 0.0763 µM

## CC(C)(C)n1cc(C(=O)c2cc(NC(=O)Cn3cc(C4CC4)nn3)ccn2)c2cncnc21 [Example 36, N-[2-(7-tert-Butyl-7H-pyrrolo[2,3-d]pyrimidine-5-carbonyl)-pyridin-4-yl]-2-(4-cyclopropyl-[1,2,3]triazol-1-yl)-acetamide]
  IC50: 0.0519 µM

## Cc1cc(C(F)(F)F)nn1CC(=O)Nc1ccnc(C(=O)c2cn(C(C)(C)CO)c3ncncc23)c1 [Example 60, N-(2-{[7-(1-hydroxy-2-methylpropan-2-yl)-7H-pyrrolo[2,3-d]pyrimidin-5-yl]carbonyl}pyridin-4-yl)-2-[5-methyl-3-(trifluoromethyl)-1H-pyrazol-1-yl]acetamide]
  IC50: 0.0083 µM

## CC(C)n1cc(C(=O)c2ccnc(NC(=O)Cc3ccc(Cl)c(Cl)c3)c2)c2cncnc21 [Example 66, 2-(3,4-Dichlorophenyl)-N-{4-[(7-isopropyl-7H-pyrrolo[2,3-d]pyrimidin-5-yl)carbonyl]pyridin-2-yl}acetamide]
  IC50: 0.00445 µM

## O=C(Cc1ccc(Cl)cc1)Nc1cc(C(=O)c2cn([C@H]3CC[C@H](O)CC3)c3ncncc23)ccn1 [Example 1, 2-(4-chlorophenyl)-N-(4-{[7-(trans-4-hydroxycyclohexyl)-7H-pyrrolo[2,3-d]pyrimidin-5-yl]carbonyl}pyridin-2-yl)acetamide]
  IC50: 0.0228 µM
